Test results from patent US20110003883A1, “ALLOSTERIC TRANS-SPLICING GROUP I RIBOZYME WHOSE ACTIVITY OF TARGET-SPECIFIC RNA REPLACEMENT IS CONTROLLED BY THEOPHYLLINE” (Industry-Academic Cooperation Foundation, Dankook University, priority 2008, published 2011).

Tests used:
[1] = system: Capan-1 cells; test: MTT assay in Capan-1 cells (hTERT+); assay type: cell-based, human; settings: Capan-1 cells with Ad-TheoRib-TK
Experimental: (§1) Cells were seeded in a 96 well plate (TPP) for 1 day, and then infected with Ad-TK (an adenoviral vector expressing a TK gene under the control of a CMV promoter), Ad-Rib-TK, Ad-TheoRib-TK, and Ad-LacZ (an adenoviral vector expressing a LacZ gene under the control of a CMV promoter) adenoviruses, respectively. The used media supplemented with GCV and a chemical (theophylline or caffeine) were exchanged with the same new media from every second to fifth day from the day after the virus infection. The HT-29 strain was seeded at a cell number of 3×10^3/well, the HepG2 strain was seeded at a cell number of 3×10^3/well, the Capan-1 strain was seeded at a cell number of 5×10^3/well, and the IMR90 strain was seeded at a cell number of 5×10^3/well. 5 days after the seeding of the strains, CellTiter 96® AQueous ONE Solution Cell Proliferation Assay (Promega) was added to each cell medium so that it amounted to 20% of the total medium, and the 96 wells were treated with 100 μl of resulting cell medium per well, and measured at a wavelength of 490 nm, using a Microplate reader model 550 (BioRad), to observe cell viability of the cells. […]

[2] = system: HepG2 cells; test: MTT assay in HepG2 cells (hTERT+); assay type: cell-based, human; settings: HepG2 cells with Ad-TheoRib-TK
Experimental: as §1

[3] = system: HT-29 cells; test: MTT assay in HT-29 cells (hTERT+); assay type: cell-based, human; settings: HT-29 cells with Ad-TheoRib-TK
Experimental: as §1

[4] = system: theophylline aptamer; settings: cited from earlier work

| Compound | optimum condition for allosterically induced gene expression: concentration [1] | optimum condition for allosterically induced gene expression: concentration [2] | optimum condition for allosterically induced gene expression: concentration [3] | affinity to the theophylline aptamer, lower than theophylline [4] |
| --- | --- | --- | --- | --- |
| Cn1c(=O)c2[nH]cnc2n(C)c1=O [theophylline] | 500 µM | 10 µM | 100 µM |  |
| Nc1nc(O)c2ncn(COC(CO)CO)c2n1 [GCV, ganciclovir] | 50 µM | 10 µM | 10 µM |  |
| Cn1c(=O)c2c(ncn2C)n(C)c1=O [caffeine] |  |  |  | 1000 times |
